Measurements reported in patent publication US11759455B2, “Substituted 1H-imidazo[4,5-b]pyridin-2(3H)-ones and their use as GLUN2B receptor modulators” (JANSSEN PHARMACEUTICA NV, priority 2016, dated 2023).

Target: T1, human GluN1/GluN2B NMDA receptors (Homo sapiens, UniProt Q13224)
T1 construct: expressed in transfected cells
Assay: Cell-based calcium flux (FLIPR) assay on cloned human NR1/NR2B ion channels expressed in mammalian cells (standard and HTS buffer variants);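 also: stable Tet-On inducible cell line, Ca2+ influx triggered by glutamate at about EC40 plus 10 µM glycine, fluorescent dye read-out over 5 min, normalized to control wells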
Settings: standard assay buffer (0.5 mM MgCl2 dye loading; 137 mM NaCl, 4 mM KCl assay buffer), human GluN1/GluN2B cells, read-out: NR2B IC50 (μM) standard assay

T1 sequence (Q13224 27-1484, other chains not shown): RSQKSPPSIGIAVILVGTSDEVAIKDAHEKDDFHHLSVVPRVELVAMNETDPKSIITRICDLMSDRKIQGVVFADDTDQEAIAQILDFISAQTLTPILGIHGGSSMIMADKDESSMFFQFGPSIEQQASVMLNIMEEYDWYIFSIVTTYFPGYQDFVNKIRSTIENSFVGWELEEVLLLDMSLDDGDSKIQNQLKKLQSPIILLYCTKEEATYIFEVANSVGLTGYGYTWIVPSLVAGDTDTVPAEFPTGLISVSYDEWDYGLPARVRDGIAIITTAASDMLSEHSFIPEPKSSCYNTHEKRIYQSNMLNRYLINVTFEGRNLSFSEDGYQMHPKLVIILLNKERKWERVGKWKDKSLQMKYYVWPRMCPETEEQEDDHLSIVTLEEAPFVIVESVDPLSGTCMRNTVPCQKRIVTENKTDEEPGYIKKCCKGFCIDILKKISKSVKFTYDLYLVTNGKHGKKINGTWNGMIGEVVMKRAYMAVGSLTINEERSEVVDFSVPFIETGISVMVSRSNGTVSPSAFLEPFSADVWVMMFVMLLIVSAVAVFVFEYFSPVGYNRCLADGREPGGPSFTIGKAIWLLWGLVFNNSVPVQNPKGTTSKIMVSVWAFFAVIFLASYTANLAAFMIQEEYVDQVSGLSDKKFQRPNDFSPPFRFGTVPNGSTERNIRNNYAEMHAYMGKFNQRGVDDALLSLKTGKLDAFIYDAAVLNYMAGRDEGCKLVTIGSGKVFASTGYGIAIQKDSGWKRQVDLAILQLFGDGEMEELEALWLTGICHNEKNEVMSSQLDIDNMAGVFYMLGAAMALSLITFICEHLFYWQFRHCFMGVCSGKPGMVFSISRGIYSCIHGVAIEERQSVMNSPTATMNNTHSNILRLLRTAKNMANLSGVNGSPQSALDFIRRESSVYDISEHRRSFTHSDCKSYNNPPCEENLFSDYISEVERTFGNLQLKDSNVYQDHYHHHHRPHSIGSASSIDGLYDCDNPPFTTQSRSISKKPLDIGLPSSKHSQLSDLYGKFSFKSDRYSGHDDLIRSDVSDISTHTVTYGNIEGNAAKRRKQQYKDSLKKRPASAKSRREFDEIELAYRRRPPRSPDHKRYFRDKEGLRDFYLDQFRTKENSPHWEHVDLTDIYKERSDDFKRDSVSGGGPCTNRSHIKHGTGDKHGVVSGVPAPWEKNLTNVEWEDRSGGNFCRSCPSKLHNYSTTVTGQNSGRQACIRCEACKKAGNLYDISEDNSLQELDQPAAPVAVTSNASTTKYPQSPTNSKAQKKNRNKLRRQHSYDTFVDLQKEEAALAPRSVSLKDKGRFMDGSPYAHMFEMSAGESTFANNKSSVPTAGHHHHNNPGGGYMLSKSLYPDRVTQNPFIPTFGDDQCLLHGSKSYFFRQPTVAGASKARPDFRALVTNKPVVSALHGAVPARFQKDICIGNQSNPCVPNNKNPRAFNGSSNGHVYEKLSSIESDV

Structure (SMILES) | IC50 [µM]
Cc1cc(Cn2c(=O)n(C)c3ncc(-c4cccc(C(F)(F)F)c4)cc32)no1 [Example 74, 3-Methyl-1-[(5-methylisoxazol-3-yl)methyl]-6-[3-(trifluoromethyl)phenyl]imidazo[4,5-b]pyridin-2-one] | 0.057
Cc1nnc(Cn2c(=O)n(C)c3ncc(-c4cccc(C(F)(F)F)c4)cc32)o1 [Example 75, 3-Methyl-1-[(5-methyl-1,3,4-oxadiazol-2-yl)methyl]-6-[3-(trifluoromethyl)phenyl]imidazo[4,5-b]pyridin-2-one] | 0.093
Cc1noc(Cn2c(=O)n(C)c3ncc(-c4cccc(C(F)(F)F)c4)cc32)n1 [Example 76, 3-Methyl-1-[(3-methyl-1,2,4-oxadiazol-5-yl)methyl]-6-[3-(trifluoromethyl)phenyl]imidazo[4,5-b]pyridin-2-one] | 0.218
Cc1noc(Cn2c(=O)n(C)c3ncc(-c4ccc(F)c(F)c4)cc32)n1 [Example 77, 6-(3,4-Difluorophenyl)-3-methyl-1-[(3-methyl-1,2,4-oxadiazol-5-yl)methyl]imidazo[4,5-b]pyridin-2-one] | 0.457
Cc1ccc(-c2cnc3c(c2)n(CC(=O)N(C)C)c(=O)n3C)s1 [Example 78, N,N-Dimethyl-2-[3-methyl-6-(5-methyl-2-thienyl)-2-oxo-imidazo[4,5-b]pyridin-1-yl]acetamide] | 0.043
Cc1csc(-c2cnc3c(c2)n(CC(=O)N(C)C)c(=O)n3C)c1 [Example 80, N,N-Dimethyl-2-[3-methyl-6-(4-methyl-2-thienyl)-2-oxo-imidazo[4,5-b]pyridin-1-yl]acetamide] | 0.03
CN(C)C(=O)Cn1c(=O)n(C)c2ncc(-c3ccc(F)s3)cc21 [Example 82, 2-[6-(5-Fluoro-2-thienyl)-3-methyl-2-oxo-imidazo[4,5-b]pyridin-1-yl]-N,N-dimethyl-acetamide] | 0.154
Cn1c(=O)n(Cc2cccnn2)c2cc(-c3ccc(F)s3)cnc21 [Example 85, 6-(5-Fluoro-2-thienyl)-3-methyl-1-(pyridazin-3-ylmethyl)imidazo[4,5-b]pyridin-2-one] | 0.157
Cc1csc(-c2cnc3c(c2)n(CC(=O)N2CC(F)C2)c(=O)n3C)n1 [Example 86, 1-[2-(3-Fluoroazetidin-1-yl)-2-oxo-ethyl]-3-methyl-6-(4-methylthiazol-2-yl)imidazo[4,5-b]pyridin-2-one] | 1.6
Cn1c(=O)n(CC(=O)N2CCC2)c2cc(-c3ccc(CO)s3)cnc21 [Example 89, 1-[2-(Azetidin-1-yl)-2-oxo-ethyl]-6-[5-(hydroxymethyl)-2-thienyl]-3-methyl-imidazo[4,5-b]pyridin-2-one] | 0.549
Cn1c(=O)n(CC(=O)N2CC(F)C2)c2cc(-c3ccc(CO)s3)cnc21 [Example 90, 1-[2-(3-Fluoroazetidin-1-yl)-2-oxo-ethyl]-6-[5-(hydroxymethyl)-2-thienyl]-3-methyl-imidazo[4,5-b]pyridin-2-one] | 0.915
CN(C)C(=O)Cn1c(=O)n(C)c2ncc(-c3ccc(CO)s3)cc21 [Example 91, 2-[6-[5-(Hydroxymethyl)-2-thienyl]-3-methyl-2-oxo-imidazo[4,5-b]pyridin-1-yl]-N,N-dimethyl-acetamide] | 1.7
Cn1c(=O)n(CC(=O)N2CC(F)C2)c2cc(-c3ccsc3C(F)(F)F)cnc21 [Example 92, 1-[2-(3-Fluoroazetidin-1-yl)-2-oxo-ethyl]-3-methyl-6-[2-(trifluoromethyl)-3-thienyl]imidazo[4,5-b]pyridin-2-one] | 0.249
Cn1c(=O)n(CC(=O)N2CCC2)c2cc(-c3ccc(C(F)F)s3)cnc21 [Example 93, 1-[2-(Azetidin-1-yl)-2-oxo-ethyl]-6-[5-(difluoromethyl)-2-thienyl]-3-methyl-imidazo[4,5-b]pyridin-2-one] | 0.006
Cn1c(=O)n(CC(=O)N2CCC2)c2cc(-c3ccsc3C(F)(F)F)cnc21 [Example 95, 1-[2-(Azetidin-1-yl)-2-oxo-ethyl]-3-methyl-6-[2-(trifluoromethyl)-3-thienyl]imidazo[4,5-b]pyridin-2-one] | 0.096
CN(C)C(=O)Cn1c(=O)n(C)c2ncc(-c3ccsc3C(F)(F)F)cc21 [Example 96, N,N-Dimethyl-2-[3-methyl-2-oxo-6-[2-(trifluoromethyl)-3-thienyl]imidazo[4,5-b]pyridin-1-yl]acetamide] | 0.522
Cn1c(=O)n(CC(=O)N2CCC2)c2cc(-c3csc(C(F)(F)F)c3)cnc21 [Example 104, 1-[2-(Azetidin-1-yl)-2-oxo-ethyl]-3-methyl-6-[5-(trifluoromethyl)-3-thienyl]imidazo[4,5-b]pyridin-2-one] | 0.048
Cn1c(=O)n(CC(=O)N2CCC2)c2cc(-c3ccc(C4CC4)s3)cnc21 [Example 105, 1-[2-(Azetidin-1-yl)-2-oxo-ethyl]-6-(5-cyclopropyl-2-thienyl)-3-methyl-imidazo[4,5-b]pyridin-2-one] | 0.081
Cn1c(=O)n(CC(=O)N2CCC2)c2cc(-c3csc(C(F)(F)F)n3)cnc21 [Example 107, 1-[2-(Azetidin-1-yl)-2-oxo-ethyl]-3-methyl-6-[2-(trifluoromethyl)thiazol-4-yl]imidazo[4,5-b]pyridin-2-one] | 0.087
CN(C)C(=O)Cn1c(=O)n(C)c2ncc(-c3csc(C(F)(F)F)n3)cc21 [Example 108, N,N-Dimethyl-2-[3-methyl-2-oxo-6-[2-(trifluoromethyl)thiazol-4-yl]imidazo[4,5-b]pyridin-1-yl]acetamide] | 0.047
Cn1c(=O)n(CC(=O)N2CC(F)C2)c2cc(-c3csc(C(F)(F)F)n3)cnc21 [Example 109, 1-[2-(3-Fluoroazetidin-1-yl)-2-oxo-ethyl]-3-methyl-6-[2-(trifluoromethyl)thiazol-4-yl]imidazo[4,5-b]pyridin-2-one] | 0.04
CN(C)C(=O)Cn1c(=O)n(C)c2ncc(-c3ccc(C4CC4)s3)cc21 [Example 110, 2-[6-(5-Cyclopropyl-2-thienyl)-3-methyl-2-oxo-imidazo[4,5-b]pyridin-1-yl]-N,N-dimethyl-acetamide] | 0.04
Cc1ncc(-c2cnc3c(c2)n(CC(=O)N2CCC2)c(=O)n3C)s1 [Example 112, 1-[2-(Azetidin-1-yl)-2-oxo-ethyl]-3-methyl-6-(2-methylthiazol-5-yl)imidazo[4,5-b]pyridin-2-one] | 5.1

More lines, now with the values ahead:

IC50 [µM] | Structure (SMILES)
0.031 | CCc1ccc(-c2cnc3c(c2)n(CC(=O)N(C)C)c(=O)n3C)s1 [Example 79, 2-[6-(5-Ethyl-2-thienyl)-3-methyl-2-oxo-imidazo[4,5-b]pyridin-1-yl]-N,N-dimethyl-acetamide]
0.031 | Cn1c(=O)n(CC(=O)N2CCC2)c2cc(-c3ccc(F)s3)cnc21 [Example 81, 1-[2-(Azetidin-1-yl)-2-oxo-ethyl]-6-(5-fluoro-2-thienyl)-3-methyl-imidazo[4,5-b]pyridin-2-one]
0.033 | Cn1c(=O)n(CC(=O)N2CC(F)C2)c2cc(-c3ccc(F)s3)cnc21 [Example 83, 1-[2-(3-Fluoroazetidin-1-yl)-2-oxo-ethyl]-6-(5-fluoro-2-thienyl)-3-methyl-imidazo[4,5-b]pyridin-2-one]
0.03 | Cn1c(=O)n(Cc2cccnn2)c2cc(-c3ccc(C(F)(F)F)s3)cnc21 [Example 84, 3-Methyl-1-(pyridazin-3-ylmethyl)-6-[5-(trifluoromethyl)-2-thienyl]imidazo[4,5-b]pyridin-2-one]
0.021 | CCc1ccc(-c2cnc3c(c2)n(CC(=O)N2CCC2)c(=O)n3C)s1 [Example 87, 1-[2-(Azetidin-1-yl)-2-oxo-ethyl]-6-(5-ethyl-2-thienyl)-3-methyl-imidazo[4,5-b]pyridin-2-one]
0.02 | CCc1ccc(-c2cnc3c(c2)n(CC(=O)N2CC(F)C2)c(=O)n3C)s1 [Example 88, 6-(5-Ethyl-2-thienyl)-1-[2-(3-fluoroazetidin-1-yl)-2-oxo-ethyl]-3-methyl-imidazo[4,5-b]pyridin-2-one]
0.017 | CN(C)C(=O)Cn1c(=O)n(C)c2ncc(-c3ccc(C(F)F)s3)cc21 [Example 94, 2-[6-[5-(Difluoromethyl)-2-thienyl]-3-methyl-2-oxo-imidazo[4,5-b]pyridin-1-yl]-N,N-dimethyl-acetamide]
0.015 | CN(C)C(=O)Cn1c(=O)n(C)c2ncc(-c3csc(C(F)F)c3)cc21 [Example 97, 2-[6-[5-(Difluoromethyl)-3-thienyl]-3-methyl-2-oxo-imidazo[4,5-b]pyridin-1-yl]-N,N-dimethyl-acetamide]
0.013 | Cn1c(=O)n(CC(=O)N2CCC2)c2cc(-c3csc(C(F)F)c3)cnc21 [Example 98, 1-[2-(Azetidin-1-yl)-2-oxo-ethyl]-6-[5-(difluoromethyl)-3-thienyl]-3-methyl-imidazo[4,5-b]pyridin-2-one]
0.033 | Cn1c(=O)n(Cc2cccnn2)c2cc(-c3ccc(C(F)F)s3)cnc21 [Example 100, 6-[5-(Difluoromethyl)-2-thienyl]-3-methyl-1-(pyridazin-3-ylmethyl)imidazo[4,5-b]pyridin-2-one]
0.019 | CN(C)C(=O)Cn1c(=O)n(C)c2ncc(-c3csc(C(F)(F)F)c3)cc21 [Example 101, N,N-Dimethyl-2-[3-methyl-2-oxo-6-[5-(trifluoromethyl)-3-thienyl]imidazo[4,5-b]pyridin-1-yl]acetamide]
0.017 | Cn1c(=O)n(Cc2cccnn2)c2cc(-c3csc(C(F)(F)F)c3)cnc21 [Example 103, 3-Methyl-1-(pyridazin-3-ylmethyl)-6-[5-(trifluoromethyl)-3-thienyl]imidazo[4,5-b]pyridin-2-one]
0.039 | Cn1c(=O)n(CC(=O)N2CC(F)C2)c2cc(-c3ccc(C4CC4)s3)cnc21 [Example 106, 6-(5-Cyclopropyl-2-thienyl)-1-[2-(3-fluoroazetidin-1-yl)-2-oxo-ethyl]-3-methyl-imidazo[4,5-b]pyridin-2-one]
0.037 | Cn1c(=O)n(CC(=O)N2CCC2)c2cc(-c3ccc(C(F)(F)C(F)(F)F)s3)cnc21 [Example 111, 1-[2-(Azetidin-1-yl)-2-oxo-ethyl]-3-methyl-6-[5-(1,1,2,2,2-pentafluoroethyl)-2-thienyl]imidazo[4,5-b]pyridin-2-one]
